Assay [1] addresses T1, E. coli LipB (EcLipB) (Escherichia coli, UniProt P60720, K135A/C169A). The settings on record: 15N-labelled inactive double mutant, C8-CoA up to 1:2 molar ratio.
In assay [2] the target is E. coli LipB (EcLipB) (Escherichia coli, UniProt P60720, G72A/G73A). Conditions: CoA:LipB 10:1 (STD, 283 K) or 8:1 (31P, 298 K), 50 mM Tris, 200 mM NaCl, pH 7.8.
The target in assay [3] is E. coli LipB (EcLipB) (Escherichia coli, UniProt P60720, R71A). Conditions: CoA:LipB 10:1, 50 mM Tris, 200 mM NaCl, pH 7.8, 283 K.
The target in assay [4] is E. coli LipB (EcLipB) (Escherichia coli, UniProt P60720, C169A). Conditions: CoA:LipB 8:1, 50 mM Tris, 200 mM NaCl, pH 7.8, 298 K.
Assay [5] concerns the target T1, E. coli LipB (EcLipB). Conditions: CoA:LipB 10:1, 50 mM Tris, 200 mM NaCl, pH 7.8, 283 K.

With `CCCCCCCC(=O)SCCNC(=O)CCNC(=O)[C@H](O)C(C)(C)COP(=O)(O)OP(=O)(O)OC[C@H]1O[C@@H](n2cnc3c(N)ncnc32)[C@H](O)[C@@H]1OP(=O)(O)O` [C8-CoA], the “15N TROSY-HSQC NMR titration” value on E. coli LipB (EcLipB) [1] was “The pattern of amide perturbations though confirmed that E. coli LipB binds C8-CoA”.
On to `CC(C)(COP(=O)(O)OP(=O)(O)OC[C@H]1O[C@@H](n2cnc3c(N)ncnc32)[C@H](O)[C@@H]1OP(=O)(O)O)[C@@H](O)C(=O)NCCC(=O)NCCS` [CoA], for which, at E. coli LipB (EcLipB) [2], the “1H STD NMR; 31P NMR” value is given as “visible in both the spectra, suggesting binding of CoA with the mutants”. Besides, the “1H STD NMR” value on E. coli LipB (EcLipB) [3] was “visible in both the spectra, suggesting binding of CoA with the mutants”; on E. coli LipB (EcLipB) [5], “STD spectra for CoA in the presence of WT LipB, LipBK135A/C169A (catalytically inactive double mutant)”. For the same compound, the “31P NMR” value at E. coli LipB (EcLipB) [4] is “upfield change in chemical shift upon addition of WT LipB”.
